Source: the kinase profiling compilation of Christmann-Franck et al. (2016)

What was measured:
Test in all cases: radiometric filter-binding kinase assay
[1] = tested on: AKT2 (human), P31751 [S474D]
BRSK1 (human) = BRSK1 (human) (UniProt Q8TDC3)
CAMKK2 (human) = CAMKK2 (human) (UniProt Q96RR4)
CLK2 (human) = CLK2 (human) (UniProt P49760)
CSK (human) = CSK (human) (UniProt P41240)
CSNK1D (human) = CSNK1D (human) (UniProt P48730)
DYRK3 (human) = DYRK3 (human) (UniProt O43781)
EPHA2 (human) = EPHA2 (human) (UniProt P29317)
FGFR1 (human) = FGFR1 (human) (UniProt P11362)
Sequence of FGFR1 (human) (P11362 whole entry, looked up): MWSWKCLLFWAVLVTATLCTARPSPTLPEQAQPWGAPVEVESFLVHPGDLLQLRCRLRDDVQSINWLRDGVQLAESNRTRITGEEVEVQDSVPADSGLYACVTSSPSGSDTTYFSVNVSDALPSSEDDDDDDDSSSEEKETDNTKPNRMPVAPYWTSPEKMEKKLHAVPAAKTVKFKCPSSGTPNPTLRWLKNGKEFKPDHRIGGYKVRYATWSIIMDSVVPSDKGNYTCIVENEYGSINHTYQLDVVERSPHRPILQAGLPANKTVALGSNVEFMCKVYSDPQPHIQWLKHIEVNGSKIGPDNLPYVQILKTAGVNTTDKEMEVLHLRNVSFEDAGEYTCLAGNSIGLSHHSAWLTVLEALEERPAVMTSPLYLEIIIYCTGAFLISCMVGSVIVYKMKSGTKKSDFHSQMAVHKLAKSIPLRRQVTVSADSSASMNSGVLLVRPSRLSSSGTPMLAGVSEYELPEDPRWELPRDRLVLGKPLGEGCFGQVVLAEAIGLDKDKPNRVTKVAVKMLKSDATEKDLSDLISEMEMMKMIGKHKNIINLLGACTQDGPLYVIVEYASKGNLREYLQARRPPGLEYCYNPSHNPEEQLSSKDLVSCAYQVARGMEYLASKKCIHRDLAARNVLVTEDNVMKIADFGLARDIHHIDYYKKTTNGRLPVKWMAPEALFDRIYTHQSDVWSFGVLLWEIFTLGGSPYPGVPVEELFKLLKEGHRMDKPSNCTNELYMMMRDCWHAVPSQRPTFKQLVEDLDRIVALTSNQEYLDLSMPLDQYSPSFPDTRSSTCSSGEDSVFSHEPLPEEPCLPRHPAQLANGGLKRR

FLT1 (human) = FLT1 (human) (UniProt P17948)
GSK3B (human) = GSK3B (human) (UniProt P49841); settings: compound 1.0 µM
HIPK1 (human) = HIPK1 (human) (UniProt Q86Z02)
HIPK3 (human) = HIPK3 (human) (UniProt Q9H422)
INSR (human) = INSR (human) (UniProt P06213)
Sequence of INSR (human) (P06213 whole entry, looked up): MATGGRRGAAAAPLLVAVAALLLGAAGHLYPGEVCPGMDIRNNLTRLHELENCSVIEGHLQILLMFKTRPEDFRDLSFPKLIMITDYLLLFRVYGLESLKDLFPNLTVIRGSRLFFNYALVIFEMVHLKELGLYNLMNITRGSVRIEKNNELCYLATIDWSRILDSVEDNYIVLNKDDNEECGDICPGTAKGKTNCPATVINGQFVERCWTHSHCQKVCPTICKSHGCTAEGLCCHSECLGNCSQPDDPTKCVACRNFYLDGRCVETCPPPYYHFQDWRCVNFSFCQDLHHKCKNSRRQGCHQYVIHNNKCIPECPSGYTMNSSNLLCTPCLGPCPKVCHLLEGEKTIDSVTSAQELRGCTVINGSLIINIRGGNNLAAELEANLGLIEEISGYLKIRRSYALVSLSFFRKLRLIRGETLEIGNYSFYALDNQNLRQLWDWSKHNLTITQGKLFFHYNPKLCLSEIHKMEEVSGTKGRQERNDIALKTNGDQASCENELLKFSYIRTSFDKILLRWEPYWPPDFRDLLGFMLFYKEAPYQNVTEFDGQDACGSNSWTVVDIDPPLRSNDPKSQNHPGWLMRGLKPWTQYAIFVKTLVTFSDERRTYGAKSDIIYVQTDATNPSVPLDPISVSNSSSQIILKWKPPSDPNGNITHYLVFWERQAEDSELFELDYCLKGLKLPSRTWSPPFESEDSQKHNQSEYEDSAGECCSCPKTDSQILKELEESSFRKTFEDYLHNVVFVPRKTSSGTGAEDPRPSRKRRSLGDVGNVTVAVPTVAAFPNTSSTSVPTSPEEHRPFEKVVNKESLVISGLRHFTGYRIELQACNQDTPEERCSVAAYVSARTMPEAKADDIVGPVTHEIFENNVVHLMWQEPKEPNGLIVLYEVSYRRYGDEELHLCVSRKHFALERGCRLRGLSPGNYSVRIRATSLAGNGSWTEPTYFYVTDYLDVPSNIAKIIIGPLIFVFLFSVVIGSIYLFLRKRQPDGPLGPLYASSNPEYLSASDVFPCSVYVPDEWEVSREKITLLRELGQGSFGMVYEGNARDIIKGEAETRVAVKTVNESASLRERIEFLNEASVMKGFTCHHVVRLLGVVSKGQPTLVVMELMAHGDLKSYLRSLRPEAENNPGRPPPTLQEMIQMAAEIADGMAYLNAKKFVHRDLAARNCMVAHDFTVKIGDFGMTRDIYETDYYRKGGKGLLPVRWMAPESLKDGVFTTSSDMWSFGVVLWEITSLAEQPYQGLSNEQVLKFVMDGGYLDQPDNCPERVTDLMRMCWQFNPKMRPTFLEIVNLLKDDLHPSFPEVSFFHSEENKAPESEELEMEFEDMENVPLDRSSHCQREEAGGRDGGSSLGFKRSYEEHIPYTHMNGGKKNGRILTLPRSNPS

IRAK4 (human) = IRAK4 (human) (UniProt Q9NWZ3)
JAK2 JH1 JH2 (human) = JAK2 JH1 JH2 (human) (UniProt O60674)
LCK (mouse) = settings: accession and sequence are those of the human protein
MAP3K1 (human) = MAP3K1 (human) (UniProt Q13233); settings: compound 0.01 µM
MAP3K7 TAB1 (human) = MAP3K7 TAB1 (human) (UniProt Q15750+O43318)
MAPK11 (human) = MAPK11 (human) (UniProt Q15759)
Sequence of MAPK11 (human) (Q15759 whole entry, looked up): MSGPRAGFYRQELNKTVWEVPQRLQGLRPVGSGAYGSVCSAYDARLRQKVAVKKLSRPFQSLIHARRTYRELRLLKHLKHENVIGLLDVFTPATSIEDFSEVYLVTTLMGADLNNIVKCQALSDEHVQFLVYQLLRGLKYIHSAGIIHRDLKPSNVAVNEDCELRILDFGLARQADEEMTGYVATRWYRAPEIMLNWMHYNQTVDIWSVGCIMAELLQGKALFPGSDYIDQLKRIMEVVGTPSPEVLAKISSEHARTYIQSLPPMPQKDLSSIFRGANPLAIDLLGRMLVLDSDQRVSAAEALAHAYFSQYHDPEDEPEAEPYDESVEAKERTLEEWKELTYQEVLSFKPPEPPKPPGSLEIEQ

MAPK14 (human) = MAPK14 (human) (UniProt Q16539)
MAPK15 (human) = MAPK15 (human) (UniProt Q8TD08)
Sequence of MAPK15 (human) (Q8TD08 whole entry, looked up): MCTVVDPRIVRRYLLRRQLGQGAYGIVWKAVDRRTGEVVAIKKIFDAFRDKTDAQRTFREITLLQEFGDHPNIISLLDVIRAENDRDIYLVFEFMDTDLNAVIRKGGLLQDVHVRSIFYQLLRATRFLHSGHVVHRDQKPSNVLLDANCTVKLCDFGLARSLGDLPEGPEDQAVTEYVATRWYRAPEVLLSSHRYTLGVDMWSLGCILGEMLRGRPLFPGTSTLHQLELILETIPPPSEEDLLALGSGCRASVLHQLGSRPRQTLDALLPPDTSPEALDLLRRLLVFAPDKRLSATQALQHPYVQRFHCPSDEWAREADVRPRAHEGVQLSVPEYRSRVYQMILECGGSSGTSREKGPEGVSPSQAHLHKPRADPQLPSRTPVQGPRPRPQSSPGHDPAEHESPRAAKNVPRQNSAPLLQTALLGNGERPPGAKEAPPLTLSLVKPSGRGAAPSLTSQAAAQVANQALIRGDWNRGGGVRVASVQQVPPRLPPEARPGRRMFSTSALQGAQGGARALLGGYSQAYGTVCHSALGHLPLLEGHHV

MAPKAPK5 (human) = MAPKAPK5 (human) (UniProt Q8IW41)
MARK1 (human) = MARK1 (human) (UniProt Q9P0L2)
MELK (human) = MELK (human) (UniProt Q14680)
MINK1 (human) = MINK1 (human) (UniProt Q8N4C8)
NTRK1 (human) = NTRK1 (human) (UniProt P04629)
PRKCZ (human) = PRKCZ (human) (UniProt Q05513)
RIPK2 (human) = RIPK2 (human) (UniProt O43353)
ROCK2 (rat) = settings: accession and sequence are those of the human protein
RPS6KA3 KD1 KD2 (human) = RPS6KA3 KD1 KD2 (human) (UniProt P51812)
SRC (human) = SRC (human) (UniProt P12931)
Sequence of SRC (human) (P12931 whole entry, looked up): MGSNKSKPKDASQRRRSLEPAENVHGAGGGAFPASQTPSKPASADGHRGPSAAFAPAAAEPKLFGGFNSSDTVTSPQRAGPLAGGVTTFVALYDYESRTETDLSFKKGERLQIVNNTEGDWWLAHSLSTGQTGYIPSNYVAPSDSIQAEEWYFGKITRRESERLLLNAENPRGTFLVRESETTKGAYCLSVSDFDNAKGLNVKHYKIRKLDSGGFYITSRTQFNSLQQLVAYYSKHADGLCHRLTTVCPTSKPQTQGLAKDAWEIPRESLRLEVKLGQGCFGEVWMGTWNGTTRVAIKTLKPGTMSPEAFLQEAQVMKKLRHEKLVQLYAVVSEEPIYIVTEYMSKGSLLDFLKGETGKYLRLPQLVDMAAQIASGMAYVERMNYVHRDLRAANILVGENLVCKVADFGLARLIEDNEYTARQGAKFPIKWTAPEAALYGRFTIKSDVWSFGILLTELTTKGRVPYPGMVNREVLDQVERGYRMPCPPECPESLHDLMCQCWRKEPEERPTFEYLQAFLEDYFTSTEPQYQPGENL

[2] = target: STK11 CAB39 STRADA (human) (UniProt Q9Y376+Q7RTN6+Q15831)
TAOK1 (human) = TAOK1 (human) (UniProt Q7L7X3)

Sequence of CLK2 (human) (P49760 whole entry, looked up): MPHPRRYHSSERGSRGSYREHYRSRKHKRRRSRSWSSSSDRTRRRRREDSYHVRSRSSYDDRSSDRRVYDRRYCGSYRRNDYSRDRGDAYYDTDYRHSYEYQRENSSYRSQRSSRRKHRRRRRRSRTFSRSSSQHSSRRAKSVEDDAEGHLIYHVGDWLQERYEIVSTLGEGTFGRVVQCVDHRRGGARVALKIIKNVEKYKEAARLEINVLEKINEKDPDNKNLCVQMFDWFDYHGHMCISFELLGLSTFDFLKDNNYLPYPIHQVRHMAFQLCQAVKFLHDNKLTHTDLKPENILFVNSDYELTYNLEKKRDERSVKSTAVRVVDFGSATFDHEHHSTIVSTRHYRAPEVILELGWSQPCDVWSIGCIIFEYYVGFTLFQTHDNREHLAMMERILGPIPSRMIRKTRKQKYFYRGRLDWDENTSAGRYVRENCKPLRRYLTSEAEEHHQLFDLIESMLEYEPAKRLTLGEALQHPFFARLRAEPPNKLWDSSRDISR
Sequence of DYRK3 (human) (O43781 whole entry, looked up): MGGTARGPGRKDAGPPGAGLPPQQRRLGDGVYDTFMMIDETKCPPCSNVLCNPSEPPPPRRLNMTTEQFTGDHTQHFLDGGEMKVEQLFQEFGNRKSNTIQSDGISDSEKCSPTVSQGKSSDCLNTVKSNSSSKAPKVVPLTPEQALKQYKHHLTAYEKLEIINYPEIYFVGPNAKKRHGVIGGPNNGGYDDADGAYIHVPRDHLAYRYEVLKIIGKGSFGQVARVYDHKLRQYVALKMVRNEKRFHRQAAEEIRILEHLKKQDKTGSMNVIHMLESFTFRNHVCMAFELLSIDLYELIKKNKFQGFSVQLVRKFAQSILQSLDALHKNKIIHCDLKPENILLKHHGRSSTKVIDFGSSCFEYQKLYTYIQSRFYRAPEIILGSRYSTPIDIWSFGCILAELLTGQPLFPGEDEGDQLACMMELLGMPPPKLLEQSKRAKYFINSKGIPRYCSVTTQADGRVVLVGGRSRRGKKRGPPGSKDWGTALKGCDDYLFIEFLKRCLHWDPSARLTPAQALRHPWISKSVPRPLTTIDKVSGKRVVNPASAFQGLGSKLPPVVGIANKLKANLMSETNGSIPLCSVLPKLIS

## COc1ccc(N(C(=O)Nc2c(C)cccc2C)c2cc(Nc3ccc(N4CCN(C)CC4)cc3)ncn2)c(OC)c1
[1]; compound 0.01 µM
  residual activity: 83%
[1]; compound 0.1 µM
  residual activity: 83%
[1]; compound 1.0 µM
  residual activity: 75%
BRSK1 (human); compound 0.01 µM
  residual activity: 103%
BRSK1 (human); compound 0.1 µM
  residual activity: 99%
BRSK1 (human); compound 1.0 µM
  residual activity: 86%
CAMKK2 (human); compound 0.01 µM
  residual activity: 105%
CAMKK2 (human); compound 0.1 µM
  residual activity: 102%
CAMKK2 (human); compound 1.0 µM
  residual activity: 89%
CLK2 (human); compound 0.01 µM
  residual activity: 97%
CLK2 (human); compound 0.1 µM
  residual activity: 100%
CLK2 (human); compound 1.0 µM
  residual activity: 108%
CSK (human); compound 0.01 µM
  residual activity: 119%
CSK (human); compound 0.1 µM
  residual activity: 101%
CSK (human); compound 1.0 µM
  residual activity: 38%
CSNK1D (human); compound 0.01 µM
  residual activity: 89%
CSNK1D (human); compound 0.1 µM
  residual activity: 85%
CSNK1D (human); compound 1.0 µM
  residual activity: 79%
DYRK3 (human); compound 0.01 µM
  residual activity: 92%
DYRK3 (human); compound 0.1 µM
  residual activity: 92%
DYRK3 (human); compound 1.0 µM
  residual activity: 97%
EPHA2 (human); compound 0.01 µM
  residual activity: 51%
EPHA2 (human); compound 0.1 µM
  residual activity: 15%
EPHA2 (human); compound 1.0 µM
  residual activity: 6%
FGFR1 (human); compound 0.01 µM
  residual activity: 102%
FGFR1 (human); compound 0.1 µM
  residual activity: 34%
FGFR1 (human); compound 1.0 µM
  residual activity: 2%
FLT1 (human); compound 0.01 µM
  residual activity: 95%
FLT1 (human); compound 0.1 µM
  residual activity: 64%
FLT1 (human); compound 1.0 µM
  residual activity: 15%
GSK3B (human)
  residual activity: 88%
HIPK1 (human); compound 0.01 µM
  residual activity: 69%
HIPK1 (human); compound 0.1 µM
  residual activity: 60%
HIPK1 (human); compound 1.0 µM
  residual activity: 56%
HIPK3 (human); compound 0.01 µM
  residual activity: 80%
HIPK3 (human); compound 0.1 µM
  residual activity: 86%
HIPK3 (human); compound 1.0 µM
  residual activity: 74%
INSR (human); compound 0.01 µM
  residual activity: 115%
INSR (human); compound 0.1 µM
  residual activity: 106%
INSR (human); compound 1.0 µM
  residual activity: 106%
IRAK4 (human); compound 0.01 µM
  residual activity: 90%
IRAK4 (human); compound 0.1 µM
  residual activity: 97%
IRAK4 (human); compound 1.0 µM
  residual activity: 90%
JAK2 JH1 JH2 (human); compound 0.01 µM
  residual activity: 99%
JAK2 JH1 JH2 (human); compound 0.1 µM
  residual activity: 88%
JAK2 JH1 JH2 (human); compound 1.0 µM
  residual activity: 89%
LCK (mouse); compound 0.01 µM
  residual activity: 63%
LCK (mouse); compound 0.1 µM
  residual activity: 54%
LCK (mouse); compound 1.0 µM
  residual activity: 47%
MAP3K1 (human)
  residual activity: 94%
MAP3K7 TAB1 (human); compound 0.1 µM
  residual activity: 110%
MAP3K7 TAB1 (human); compound 1.0 µM
  residual activity: 84%
MAPK11 (human); compound 0.01 µM
  residual activity: 89%
MAPK11 (human); compound 0.1 µM
  residual activity: 42%
MAPK11 (human); compound 1.0 µM
  residual activity: 19%
MAPK14 (human); compound 0.01 µM
  residual activity: 121%
MAPK14 (human); compound 0.1 µM
  residual activity: 79%
MAPK14 (human); compound 1.0 µM
  residual activity: 26%
MAPK15 (human); compound 0.01 µM
  residual activity: 108%
MAPK15 (human); compound 0.1 µM
  residual activity: 112%
MAPK15 (human); compound 1.0 µM
  residual activity: 94%
MAPKAPK5 (human); compound 0.01 µM
  residual activity: 119%
MAPKAPK5 (human); compound 0.1 µM
  residual activity: 115%
MAPKAPK5 (human); compound 1.0 µM
  residual activity: 125%
MARK1 (human); compound 0.01 µM
  residual activity: 88%
MARK1 (human); compound 0.1 µM
  residual activity: 87%
MARK1 (human); compound 1.0 µM
  residual activity: 53%
MELK (human); compound 0.01 µM
  residual activity: 105%
MELK (human); compound 0.1 µM
  residual activity: 93%
MELK (human); compound 1.0 µM
  residual activity: 71%
MINK1 (human); compound 0.01 µM
  residual activity: 94%
MINK1 (human); compound 0.1 µM
  residual activity: 76%
MINK1 (human); compound 1.0 µM
  residual activity: 18%
NTRK1 (human); compound 0.01 µM
  residual activity: 98%
NTRK1 (human); compound 1.0 µM
  residual activity: 89%
PRKCZ (human); compound 0.01 µM
  residual activity: 97%
PRKCZ (human); compound 0.1 µM
  residual activity: 104%
PRKCZ (human); compound 1.0 µM
  residual activity: 102%
RIPK2 (human); compound 0.01 µM
  residual activity: 77%
RIPK2 (human); compound 0.1 µM
  residual activity: 37%
RIPK2 (human); compound 1.0 µM
  residual activity: 8%
ROCK2 (rat); compound 0.01 µM
  residual activity: 90%
ROCK2 (rat); compound 1.0 µM
  residual activity: 68%
RPS6KA3 KD1 KD2 (human); compound 0.01 µM
  residual activity: 100%
RPS6KA3 KD1 KD2 (human); compound 0.1 µM
  residual activity: 92%
RPS6KA3 KD1 KD2 (human); compound 1.0 µM
  residual activity: 54%
SRC (human); compound 0.01 µM
  residual activity: 45%
SRC (human); compound 0.1 µM
  residual activity: 9%
SRC (human); compound 1.0 µM
  residual activity: 3%
[2]; compound 0.01 µM
  residual activity: 108%
[2]; compound 0.1 µM
  residual activity: 106%
[2]; compound 1.0 µM
  residual activity: 96%
TAOK1 (human); compound 0.01 µM
  residual activity: 85%
TAOK1 (human); compound 0.1 µM
  residual activity: 69%
TAOK1 (human); compound 1.0 µM
  residual activity: 33%
